The subject of series [1] is patients with chronic myelogenous leukemia (CML). Particulars: cited from earlier work.
For a further series, the system named is BCR-ABL substrate CRKL. Description: Sandwich ELISA of total and activated (phosphorylated) CRKL in cancer cell lines after growth factor treatment. It is filed as cell-based, human.
[2] abbreviates: 400 mg/day imatinib, after 7 years.

Where two headings read alike, the source gives them in different places.

On to `Cc1ccc(NC(=O)c2ccc(CN3CCN(C)CC3)cc2)cc1Nc1nccc(-c2cccnc2)n1` [imatinib], for which, in series [1] (400 mg/day imatinib, % of patients), the “complete cytogenetic response (CCyR)” value is recorded as 70-80%. In addition, in series [1] (setting [2]), the “even free survival rate” value was 81%. The overall survival rate in series [1] (setting [2]) is on record as 90%. In addition, the relapse rate entry in series [1] (400 mg/day imatinib, in 5 years) is on record as “about 30%”; in series [1] (800 mg/day imatinib) it was 5%. The “loss of CCyR rate” value is 4 to 7 %/yr in series [1] (400 mg/day imatinib, in the first 3 years) and 1 to 2 %/yr in series [1] (400 mg/day imatinib, thereafter (after first 3 years)). The toxicity result in series [1] (800 mg/day imatinib compared with 400 mg/day) was “more toxic”. For the same compound, the CCyR in series [1] (800 mg/day imatinib) is reported as 95%. Moreover, in series [1] (first line therapy, newly diagnosed patients with CML), the “patients who do not achieve durable complete cytogenetic responses” value was 20-25%.
With `Cc1cn(-c2cc(NC(=O)c3ccc(C)c(Nc4nccc(-c5cccnc5)n4)c3)cc(C(F)(F)F)c2)cn1` [nilotinib], the toxicity entry in series [1] (nilotinib compared with imatinib) is reported as “more toxic than imatinib”.
Turning to “epidermal growth factor [EGF, stimulatory growth factor]”, the “CRKL activation (i.e., phosphorylation) upon treatment” value in the series with BCR-ABL substrate CRKL (A431 cells) is given as “activated”; with BCR-ABL substrate CRKL (T47D cells), “not activated”.
On to heregulin, for which the “CRKL activation (i.e., phosphorylation) upon treatment” value in the series with BCR-ABL substrate CRKL (MCF-7 cells) is “activated (i.e., phosphorylated) at low levels”; with BCR-ABL substrate CRKL (T47D cells), “activated (i.e., phosphorylated) at low levels”.

The record behind these values is patent publication US20120277109A1, “PROXIMITY-MEDIATED ASSAYS FOR DETECTING ONCOGENIC FUSION PROTEINS” (Prometheus Laboratories Inc., priority 2009, published 2012).
